{
  "source": "patent US8158608B2",
  "about": "“Bioactive fraction from Zingier officinale and a process for the preparation thereof” (Council of Scientific and Industrial Research, priority 2006, dated 2012)",
  "key": {"[1]": {"biological_target": "Proton Potassium ATPase (H+ K+ ATPase) (Ovis aries, UniProt A0ACI6QGK8)", "sequence (A0ACI6QGK8 entry or part of it)": "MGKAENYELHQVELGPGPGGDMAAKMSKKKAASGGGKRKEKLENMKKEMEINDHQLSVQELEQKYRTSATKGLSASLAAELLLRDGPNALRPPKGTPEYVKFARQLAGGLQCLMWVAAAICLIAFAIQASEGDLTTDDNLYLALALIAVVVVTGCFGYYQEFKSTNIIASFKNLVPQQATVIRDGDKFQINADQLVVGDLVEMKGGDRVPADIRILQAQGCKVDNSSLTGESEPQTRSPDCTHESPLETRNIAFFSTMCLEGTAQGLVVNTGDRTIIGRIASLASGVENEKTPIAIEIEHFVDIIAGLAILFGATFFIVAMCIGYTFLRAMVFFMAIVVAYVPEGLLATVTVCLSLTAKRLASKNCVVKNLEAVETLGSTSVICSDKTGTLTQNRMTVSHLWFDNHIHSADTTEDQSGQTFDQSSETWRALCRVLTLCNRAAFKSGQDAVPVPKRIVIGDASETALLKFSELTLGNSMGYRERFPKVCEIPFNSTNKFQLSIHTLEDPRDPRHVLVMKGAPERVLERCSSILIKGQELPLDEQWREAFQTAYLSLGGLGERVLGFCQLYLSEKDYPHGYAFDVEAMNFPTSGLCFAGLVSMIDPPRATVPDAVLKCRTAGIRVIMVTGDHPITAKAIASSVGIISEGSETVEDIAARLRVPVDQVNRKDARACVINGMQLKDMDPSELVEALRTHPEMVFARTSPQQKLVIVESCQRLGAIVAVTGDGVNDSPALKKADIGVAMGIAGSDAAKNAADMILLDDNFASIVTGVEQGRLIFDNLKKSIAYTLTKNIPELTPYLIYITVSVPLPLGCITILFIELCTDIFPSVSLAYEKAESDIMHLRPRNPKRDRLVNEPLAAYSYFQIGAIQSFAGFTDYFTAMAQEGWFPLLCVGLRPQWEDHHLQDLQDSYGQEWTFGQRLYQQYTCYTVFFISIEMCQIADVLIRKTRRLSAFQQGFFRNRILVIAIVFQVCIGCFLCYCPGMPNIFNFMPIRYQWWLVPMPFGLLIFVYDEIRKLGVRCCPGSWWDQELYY", "sequence (A0ACI6PNA7 entry or part of it, further chain)": "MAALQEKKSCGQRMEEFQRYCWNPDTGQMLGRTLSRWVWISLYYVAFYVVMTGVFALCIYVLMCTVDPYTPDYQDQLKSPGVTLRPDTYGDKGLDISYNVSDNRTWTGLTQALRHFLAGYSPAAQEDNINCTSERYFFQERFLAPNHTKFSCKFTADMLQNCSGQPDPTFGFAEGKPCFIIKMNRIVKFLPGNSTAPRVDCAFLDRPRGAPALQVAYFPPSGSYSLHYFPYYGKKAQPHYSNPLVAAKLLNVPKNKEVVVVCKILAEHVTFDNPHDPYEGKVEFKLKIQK", "assay": "Proton potassium ATPase inhibition (PPI), inorganic phosphate release", "type": "biochemical, sheep", "details": "calculated contribution of GRAOX components", "protocol": "Fresh sheep stomach was obtained from local slaughterhouse at Mysore. The mucosa of gastric fundus was cut off and the inner layer were scraped for parietal cells and homogenized in 16 mM Tris buffer (pH 7.4) containing 10% triton-x100 and centrifuged at 6000 rpm for 10 min. The supernatant (enzyme extract) was used for the assay. Protein content was determined according to Brad ford's method using BSA as standard.\nInorganic phosphate formed was measured spectrophotometrically at 400 nm. Enzyme activity was calculated as μ moles of Pi released/hr at various doses of GRAOX and GRPP. […] (FIG. 1, Table. 1)"}, "[2]": {"assay": "Antioxidant (Aox) potency of identified phenolic acids", "details": "for Contribution towards AOX potency of GRAOX: calculated contribution of GRAOX components", "protocol": "The identified phenolic acids were examined for their ability to inhibit proton potassium ATPase activity and their antioxidant potency was also determined."}},
  "data": [
    {"compound": "O=C(O)C=Cc1ccccc1", "note": "[Cinnamic acid]", "values": [
      {"measurement": "Contribution towards H+K+ ATPase activity of GRAOX", "setting": "[1]", "result": "~90", "unit": "%"},
      {"measurement": "Contribution towards AOX potency of GRAOX", "setting": "[2]", "result": "~2", "unit": "%"}
    ]},
    {"compound": "Gallic acid/Tannic acid", "values": [
      {"measurement": "Contribution towards H+K+ ATPase activity of GRAOX", "setting": "[1]", "result": "~6", "unit": "%"},
      {"measurement": "Contribution towards AOX potency of GRAOX", "setting": "[2]", "result": "~92", "unit": "%"},
      {"measurement": "antioxidant potency fold higher than Cinnamic acid", "setting": "[2]; ratio versus Cinnamic acid", "result": "~20", "unit": "fold"}
    ]}
  ]
}
